Measured values from patent publication EP0641797A1, “Cephem derivatives and antimicrobial agents containing the same” (KATAYAMA SEIYAKUSYO CO. Ltd., priority 1993, dated 1995).
≈ marks a conversion by molar mass, not a printed value. Where two headings read alike, the source gives them in different places.

Columns and labels:
Assay in all cases: MIC on standard strains, standard method of Japan Society of Chemotherapy
Format in all cases: cell-based
E. coli NHIJ JC-2 = details: Escherichia coli, NHIJJC2
Description: (§1) Antimicrobial activity of the compounds of the present invention were measured using CTM (cefotiam) and FMOX (flomoxef) as control drugs in accordance with the standard method of Japan Society of Chemotherapy. Of the 25 standard strains used in this test, Staphylococcus aureus 167 and Staphylococcus aureus 195 belong to MRSA.
(§2) In these tables, drugs tested are shown by the corresponding examples in which they were synthesized.

E. cloacae Nek39 = system: E. cloacae Nek39
Description: as §1, §2

A. faecalis ATCC 3750 = details: Alcaligenes faecalis, ATCC3750, A. faecalis ATCC 3750; read-out: MIC
Description: as §1, §2

S. aureus Smith = details: Staphylococcus aureus, read-out: MIC
Description: as §1, §2

P. cepacia = system: P. cepacia
Description: as §1, §2

A. calcoaceticos T59 = system: A. calcoaceticos T59
Description: as §1, §2

S. marcescens IAM 1184 = details: Serratia marcescens, IAM1184, S. marcescens IAM 1184; read-out: MIC
Description: as §1, §2

M. luteus ATCC 9341 = details: Micrococcus luteus, ATCC9341
Description: as §1, §2

P. aeruginosa NCTC 10490 = details: Pseudomonas aeruginosa, NCTC10490, P. aeruginosa NCTC 10490; read-out: MIC
Description: as §1, §2

S. epidemidis IAM 1296 = system: S. epidemidis IAM 1296
Description: as §1, §2

E. cloacae ATCC 13407 = system: E. cloacae ATCC 13407
Description: as §1, §2

K. pneuminiae No. 42 = system: K. pneuminiae No. 42
Description: as §1, §2

E. coli CSH2(RK1) = details: Escherichia coli
Description: as §1, §2

S. aureus 167 = details: Staphylococcus aureus; S. aureus 167 (MRSA)
Description: as §1, §2

P. vulugaris OX-19 = system: P. vulugaris OX-19
Description: as §1, §2

K. pneuminiae IFO 3317 = system: K. pneuminiae IFO 3317
Description: as §1, §2

P. mirabilis IFO 3849 = system: P. mirabilis IFO 3849
Description: as §1, §2

C. freundii ATCC 8090 = system: C. freundii ATCC 8090
Description: as §1, §2

S. marcescens No. 16-2 = details: Serratia marcescens, NO.162
Description: as §1, §2

S. aureus 209p JC-1 = details: Staphylococcus aureus, 209P, read-out: MIC
Description: as §1, §2

P. aeruginosa AKR17 = details: Pseudomonas aeruginosa
Description: as §1, §2

M. morganii IFO 3848 = details: Morganella morganii, IFO3848
Description: as §1, §2

B. subtilis ATCC 6633 = system: B. subtilis ATCC 6633
Description: as §1, §2

E. coli CSH2(RE45) = details: Escherichia coli
Description: as §1, §2

S. aureus 195 = details: Staphylococcus aureus; S. aureus 195 (MRSA)
Description: as §1, §2

[1] = Enterobacter cloacae, NEK39, E. cloacae Nek39, read-out: MIC
[2] = Burkholderia cepacia, read-out: MIC
[3] = Enterobacter cloacae, ATCC13407, E. cloacae ATCC 13407, read-out: MIC
[4] = Proteus mirabilis, IFO3849, P. mirabilis IFO 3849, read-out: MIC
[5] = Citrobacter freundii, ATCC8090, C. freundii ATCC 8090, read-out: MIC
[6] = Bacillus subtilis, ATCC6633, B. subtilis ATCC 6633, read-out: MIC

Structure (SMILES) | MIC (E. coli NHIJ JC-2) | MIC (E. cloacae Nek39; [1]) | MIC (A. faecalis ATCC 3750) | MIC (S. aureus Smith) | MIC (P. cepacia; [2]) | MIC (A. calcoaceticos T59; read-out: MIC) | MIC (S. marcescens IAM 1184) | MIC (M. luteus ATCC 9341) | MIC (P. aeruginosa NCTC 10490) | MIC (S. epidemidis IAM 1296) | MIC (E. cloacae ATCC 13407; [3]) | MIC (K. pneuminiae No. 42) | MIC (E. coli CSH2(RK1)) | MIC (S. aureus 167) | MIC (P. vulugaris OX-19) | MIC (K. pneuminiae IFO 3317) | MIC (P. mirabilis IFO 3849; [4]) | MIC (C. freundii ATCC 8090; [5]) | MIC (S. marcescens No. 16-2) | MIC (S. aureus 209p JC-1) | other results
Nc1nc(-c2cc[n+](CC3=C(C(=O)[O-])N4C(=O)[C@@H](NC(=O)/C(=N\O)c5csc(N)n5)[C@H]4SC3)cc2)no1 [Ex. 13, 7β-[2-(2-aminothiazol-4-yl)-2-syn-hydroxyiminoacetamido]-3-[4-(5-amino-1,2,4-oxadiazol-3-yl)pyridinio]methyl-3-cephem-4-carboxylate] | 0.2 µg/mL (≈ 0.368 µM) | > 100 µg/mL | 1.56 µg/mL (≈ 2.87 µM) | 0.39 µg/mL (≈ 0.718 µM) | > 100 µg/mL | 12.5 µg/mL (≈ 23 µM) | 0.39 µg/mL (≈ 0.718 µM) | 0.025 µg/mL (≈ 0.046 µM) | 1.56 µg/mL (≈ 2.87 µM) | 0.1 µg/mL (≈ 0.184 µM) | 3.13 µg/mL (≈ 5.76 µM) | 0.78 µg/mL (≈ 1.44 µM) | 0.39 µg/mL (≈ 0.718 µM) | 6.25 µg/mL (≈ 11.5 µM) | 0.2 µg/mL (≈ 0.368 µM) | 0.2 µg/mL (≈ 0.368 µM) | 0.39 µg/mL (≈ 0.718 µM) | 0.2 µg/mL (≈ 0.368 µM) | 100 µg/mL (≈ 184 µM) | 0.2 µg/mL (≈ 0.368 µM) | MIC (P. aeruginosa AKR17): > 100 µg/mL; MIC (M. morganii IFO 3848): 0.1 µg/mL (≈ 0.184 µM); MIC (B. subtilis ATCC 6633; [6]): 0.2 µg/mL (≈ 0.368 µM); MIC (E. coli CSH2(RE45)): 0.39 µg/mL (≈ 0.718 µM); MIC (S. aureus 195): 3.13 µg/mL (≈ 5.76 µM)
Nc1nc(/C(=N/O)C(=O)N[C@@H]2C(=O)N3C(C(=O)[O-])=C(C[n+]4cccc(-c5nsc(N)n5)c4)CS[C@H]23)cs1 [Ex. 12, 7β-[2-(2-aminothiazol-4-yl)-2-syn-hydroxyiminoacetamido]-3-[3-(5-amino-1,2,4-thiadiazol-3-yl)pyridinio]methyl-3-cephem-4-carboxylate] | 0.39 µg/mL (≈ 0.697 µM) | 100 µg/mL (≈ 179 µM) | 1.56 µg/mL (≈ 2.79 µM) | 0.39 µg/mL (≈ 0.697 µM) | > 100 µg/mL | 12.5 µg/mL (≈ 22.3 µM) | 0.78 µg/mL (≈ 1.39 µM) | 0.025 µg/mL (≈ 0.0447 µM) | 6.25 µg/mL (≈ 11.2 µM) | 0.05 µg/mL (≈ 0.0893 µM) | 3.13 µg/mL (≈ 5.59 µM) | 0.78 µg/mL (≈ 1.39 µM) | 0.78 µg/mL (≈ 1.39 µM) | 6.25 µg/mL (≈ 11.2 µM) | 0.39 µg/mL (≈ 0.697 µM) | 0.2 µg/mL (≈ 0.357 µM) | 0.39 µg/mL (≈ 0.697 µM) | 0.39 µg/mL (≈ 0.697 µM) | 100 µg/mL (≈ 179 µM) | 0.2 µg/mL (≈ 0.357 µM) | MIC (P. aeruginosa AKR17): > 100 µg/mL; MIC (M. morganii IFO 3848): 0.1 µg/mL (≈ 0.179 µM); MIC (B. subtilis ATCC 6633; [6]): 0.2 µg/mL (≈ 0.357 µM); MIC (E. coli CSH2(RE45)): 0.39 µg/mL (≈ 0.697 µM); MIC (S. aureus 195): 1.56 µg/mL (≈ 2.79 µM)
NC(=NO)c1ccc[n+](CC2=C(C(=O)[O-])N3C(=O)[C@@H](NC(=O)/C(=N\O)c4csc(N)n4)[C@H]3SC2)c1 [Ex. 19, 7β-[2-(2-aminothiazol-4-yl)-2-syn-hydroxyiminoacetamido]-3-[3-(1-amino-1-hydroxyiminomethyl)pyridinio]methyl-3-cephem-4-carboxylate] | 0.39 µg/mL (≈ 0.752 µM) | 50 µg/mL (≈ 96.4 µM) | 3.18 µg/mL (≈ 6.13 µM) | 0.39 µg/mL (≈ 0.752 µM) | > 100 µg/mL | 6.25 µg/mL (≈ 12.1 µM) | 0.2 µg/mL (≈ 0.386 µM) | 0.1 µg/mL (≈ 0.193 µM) | 3.13 µg/mL (≈ 6.04 µM) | 0.1 µg/mL (≈ 0.193 µM) | 3.13 µg/mL (≈ 6.04 µM) | 0.78 µg/mL (≈ 1.5 µM) | 0.78 µg/mL (≈ 1.5 µM) | 6.25 µg/mL (≈ 12.1 µM) | 0.39 µg/mL (≈ 0.752 µM) | 0.2 µg/mL (≈ 0.386 µM) | 0.39 µg/mL (≈ 0.752 µM) | 0.39 µg/mL (≈ 0.752 µM) | 100 µg/mL (≈ 193 µM) | 0.2 µg/mL (≈ 0.386 µM) | MIC (P. aeruginosa AKR17): > 100 µg/mL; MIC (M. morganii IFO 3848): 0.2 µg/mL (≈ 0.386 µM); MIC (B. subtilis ATCC 6633; [6]): 0.39 µg/mL (≈ 0.752 µM); MIC (E. coli CSH2(RE45)): 0.39 µg/mL (≈ 0.752 µM); MIC (S. aureus 195): 1.56 µg/mL (≈ 3.01 µM)
CO[C@@]1(NC(=O)CSC(F)F)C(=O)N2C(C(=O)O)=C(CSc3nnnn3CCO)CO[C@@H]21 [FMOX, flomoxef, reference compound] | 0.1 µg/mL (≈ 0.201 µM) | > 100 µg/mL | 0.1 µg/mL (≈ 0.201 µM) | 0.39 µg/mL (≈ 0.786 µM) | 50 µg/mL (≈ 101 µM) | > 100 µg/mL | 0.2 µg/mL (≈ 0.403 µM) | 0.1 µg/mL (≈ 0.201 µM) | > 100 µg/mL | 0.2 µg/mL (≈ 0.403 µM) | 50 µg/mL (≈ 101 µM) | 0.1 µg/mL (≈ 0.201 µM) | 0.1 µg/mL (≈ 0.201 µM) | 50 µg/mL (≈ 101 µM) | 0.39 µg/mL (≈ 0.786 µM) | 0.05 µg/mL (≈ 0.101 µM) | 0.39 µg/mL (≈ 0.786 µM) | 0.39 µg/mL (≈ 0.786 µM) | 100 µg/mL (≈ 201 µM) | 0.39 µg/mL (≈ 0.786 µM) | MIC (E. cloacae Nek39; E. cloacae Nek39): 100 µg/mL (≈ 201 µM); MIC (P. cepacia): 100 µg/mL (≈ 201 µM); MIC (A. calcoaceticos T59): 100 µg/mL (≈ 201 µM); MIC (E. cloacae ATCC 13407; E. cloacae ATCC 13407): 100 µg/mL (≈ 201 µM); MIC (P. mirabilis IFO 3849; P. mirabilis IFO 3849): 0.2 µg/mL (≈ 0.403 µM); MIC (C. freundii ATCC 8090; C. freundii ATCC 8090): 0.2 µg/mL (≈ 0.403 µM); MIC (P. aeruginosa AKR17): > 100 µg/mL; MIC (M. morganii IFO 3848): 0.39 µg/mL (≈ 0.786 µM); MIC (B. subtilis ATCC 6633; B. subtilis ATCC 6633): 0.2 µg/mL (≈ 0.403 µM); MIC (B. subtilis ATCC 6633; [6]): 0.39 µg/mL (≈ 0.786 µM); MIC (E. coli CSH2(RE45)): 0.1 µg/mL (≈ 0.201 µM); MIC (S. aureus 195): 3.13 µg/mL (≈ 6.3 µM)
